The nature of assay [1]: Inhibition of SOAT1 in arterial homogenates isolated from 1% cholesterol fed New Zealand white rabbit assessed as reduction in cholesteryl oleate formation incubated for 5 mins in presence of [14C]-oleoyl-CoA and BSA complex by TLC method. The format is tissue-based, Oryctolagus cuniculus.
Assay [2] in a line: Inhibition of SOAT2 in New Zealand white rabbit intestinal microsomes assessed as reduction in cholesteryl oleate formation incubated for 5 mins in presence of [14C]-oleoyl-CoA and BSA complex by TLC method. More on the design: species or system Oryctolagus cuniculus, Intestine.
The species entered for assay [3] is Oryctolagus cuniculus. The assay can be described thus: Selectivity ratio of IC50 for inhibition of SOAT2 in New Zealand white rabbit intestinal microsomes to IC50 for inhibition of SOAT1 in arterial homogenates isolated from 1% cholesterol fed New Zealand white rabbit.
The target of assay [4] is T1, Sterol O-acyltransferase 1 (Mus musculus, UniProt Q61263).
T1 sequence (Q61263 whole entry): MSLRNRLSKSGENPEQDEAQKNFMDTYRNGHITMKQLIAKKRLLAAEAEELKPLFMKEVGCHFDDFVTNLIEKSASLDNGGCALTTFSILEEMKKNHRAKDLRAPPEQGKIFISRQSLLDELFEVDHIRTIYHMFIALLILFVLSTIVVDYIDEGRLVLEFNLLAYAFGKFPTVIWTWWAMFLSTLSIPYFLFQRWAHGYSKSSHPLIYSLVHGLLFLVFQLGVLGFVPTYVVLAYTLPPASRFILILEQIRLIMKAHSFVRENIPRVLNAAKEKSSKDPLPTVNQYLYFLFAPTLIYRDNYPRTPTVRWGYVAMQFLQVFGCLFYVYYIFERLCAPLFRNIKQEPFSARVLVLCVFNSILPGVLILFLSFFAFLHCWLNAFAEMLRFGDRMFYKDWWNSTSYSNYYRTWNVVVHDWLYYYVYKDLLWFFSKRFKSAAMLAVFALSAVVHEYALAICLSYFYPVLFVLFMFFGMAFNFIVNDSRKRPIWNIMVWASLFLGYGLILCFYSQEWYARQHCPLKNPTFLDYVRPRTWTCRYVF
The assay can be described thus: Inhibition of ACAT1 in mouse J774 cells assessed as reduction in esterified cholesterol accumulation after 18 hrs in presence of 25-hydroxycholesterol. The format is cell-based.

For the molecule `CC(C)c1cccc(C(C)C)c1NC(=O)CCCCCSc1nc2c(CN(C)C)cccc2o1`, the half-inhibitory concentration (IC50) (usually the point on the concentration scale where inhibition reaches its midpoint) was determined as 42 nM in assay [1] and 320 nM in assay [2]. For the same molecule, the Ratio IC50 in assay [3] was determined as 7.6.

In the case of `COC(=O)c1ccc2nc(SCCCCCC(=O)Nc3c(C(C)C)cccc3C(C)C)oc2c1`, the results for the half-maximal inhibitory concentration (IC50) in assay [1], in assay [2] and in assay [4] were 29 nM, 110 nM and 500 nM, respectively. In assay [3], the Ratio IC50 was 3.8.

For `CC(C)c1cccc(C(C)C)c1NC(=O)CSc1nc2ccccc2s1`, the 50% inhibitory concentration (IC50) in assay [1] was determined as 31 nM; in assay [2], 47 nM; in assay [4], 180 nM. For the same molecule, the Ratio IC50 in assay [3] was 1.5.

Regarding `CC(C)c1cccc(C(C)C)c1NC(=O)CCCCCSc1nc2cc(N(C)C)ccc2o1`, the 50% inhibitory concentration (IC50) stood at 43 nM in assay [1], 250 nM in assay [2] and 500 nM in assay [4]. The Ratio IC50 in assay [3] was 5.8.

Take `CC(C)c1cccc(C(C)C)c1NC(=O)CCCCCCCCSc1nc2ccccc2[nH]1`: the IC50 in assay [1] was 14 nM; in assay [2], 31 nM; in assay [4], 300 nM. Also, the Ratio IC50 in assay [3] is 2.2.

On to `CC(C)c1cccc(C(C)C)c1NC(=O)CCCCSc1nc2ccccc2[nH]1`, for which the IC50 is 390 nM in assay [1], 430 nM in assay [2] and 5200 nM in assay [4]. Further, the Ratio IC50 in assay [3] was determined as 1.1.

`Cc1ccc2nc(SCCCCCC(=O)Nc3c(C(C)C)cccc3C(C)C)oc2c1`: the IC50 is 34 nM in assay [1], 110 nM in assay [2] and 400 nM in assay [4]. Also, the Ratio IC50 in assay [3] worked out at 3.2.

For the molecule `CCCCCCCN(CCCCCSc1nc(-c2ccccc2)c(-c2ccccc2)[nH]1)C(=O)Nc1ccc(F)cc1F` [LECIMIBIDE], the IC50 in assay [1] was found to be 36 nM; in assay [2] it was 20 nM; in assay [4] it was 820 nM.

Take `CC(C)c1cccc(C(C)C)c1NC(=O)CCCCCCCSc1nc2ccccc2s1`: the IC50 in assay [1] was 7 nM; in assay [2], 36 nM; in assay [4] it was 59 nM. The Ratio IC50 in assay [3] was found to be 5.1.

For `CC(C)c1cccc(C(C)C)c1NC(=O)CCCCCCSc1nc2ccccc2s1`, the figures for the 50% inhibitory concentration (IC50) in assay [1], in assay [2] and in assay [4] were 7 nM, 28 nM and 410 nM, respectively. In addition, in assay [3], the Ratio IC50 was 4.

On to `CC(C)c1cccc(C(C)C)c1NC(=O)CSc1nc2ccccc2o1`, for which the IC50 in assay [1] was 35 nM; in assay [2] it was 200 nM. For the same molecule, in assay [3], the Ratio IC50 was determined as 5.7.

Take `COC(=O)c1ccc2oc(SCCCCCC(=O)Nc3c(C(C)C)cccc3C(C)C)nc2c1`: the IC50 in assay [1] amounted to 70 nM; in assay [2] it was 210 nM. Also, the Ratio IC50 in assay [3] worked out at 3.

With `CC(C)c1cccc(C(C)C)c1NC(=O)CCCCCSc1nc2ccncc2o1`, the IC50 was 41 nM in assay [1], 160 nM in assay [2] and 4100 nM in assay [4]. Further, the Ratio IC50 in assay [3] was determined as 3.9.

On to `CC(C)c1cccc(C(C)C)c1NC(=O)CCCCCCCSc1nc2ccccc2o1`, for which the 50% inhibitory concentration (IC50) in assay [1] was 4 nM; in assay [2], 22 nM; in assay [4] it was 40 nM. Also, the Ratio IC50 in assay [3] was 5.5.

As to `CC(=O)Nc1c(C(C)C)cccc1C(C)C`, in assay [1], the IC50 was found to be 8600 nM.

As to `CC(C)c1cccc(C(C)C)c1NC(=O)CCCSc1nc2ccccc2o1`, the IC50 worked out at 36 nM in assay [1] and 2800 nM in assay [4].

With `CC(C)c1cccc(C(C)C)c1NC(=O)CCCCCCCCCCCCCCSc1nc2ccccc2s1`, the IC50 in assay [1] came out at 88 nM; in assay [2] it was 93 nM; in assay [4], 1800 nM. Moreover, the Ratio IC50 in assay [3] amounted to 1.1.

In the case of `CC(C)c1cccc(C(C)C)c1NC(=O)CCCCCSc1nc2cccc(CO)c2o1`, the IC50 in assay [1] was 56 nM; in assay [2], 110 nM; in assay [4], 2200 nM. The Ratio IC50 in assay [3] was found to be 2.

In the case of `CC(C)c1cccc(C(C)C)c1NC(=O)CCCCCCSc1nc2ccccc2[nH]1`, the IC50 was 24 nM in assay [1], 34 nM in assay [2] and 48 nM in assay [4]. In addition, the Ratio IC50 in assay [3] turned out to be 1.4.

For the molecule `CC(C)c1cccc(C(C)C)c1NC(=O)CCCCCCCCCCCCCCSc1nc2ccccc2o1`, the IC50 in assay [1] is 40 nM; in assay [2] it was 44 nM; in assay [4], 410 nM. For the same molecule, in assay [3], the Ratio IC50 was 1.1.

On to `CCCCCC(=O)Nc1c(C(C)C)cccc1C(C)C`, for which the 50% inhibitory concentration (IC50) in assay [1] was determined as 170 nM.

Take `CC(C)c1cccc(C(C)C)c1NC(=O)CCCCCSc1nc2c(CO)cccc2o1`: the results for the IC50 in assay [1], in assay [2] and in assay [4] were 45 nM, 180 nM and 11000 nM, respectively. For the same molecule, the Ratio IC50 in assay [3] is 4.

Consider `CC(C)c1cccc(C(C)C)c1NC(=O)CCCCCSc1nc2c(O)cccc2o1`, for which the IC50 is 240 nM in assay [1], 240 nM in assay [2] and 8800 nM in assay [4]. In addition, the Ratio IC50 in assay [3] was 1.

For the molecule `CC(C)c1cccc(C(C)C)c1NC(=O)CCCCCCCCCSc1nc2ccccc2s1`, the figures for the concentration for half-maximal inhibition (IC50) in assay [1], in assay [2] and in assay [4] were 5 nM, 11 nM and 570 nM, respectively. In addition, the Ratio IC50 in assay [3] is 2.2.

In the case of `CC(C)c1cccc(C(C)C)c1NC(=O)CCCCCSc1nc2ccc(C(=O)O)cc2o1`, the IC50 in assay [1] worked out at 2100 nM; in assay [2], 5000 nM; in assay [4], 4400 nM. Besides, the Ratio IC50 in assay [3] stood at 2.4.

On to `CC(C)c1cccc(C(C)C)c1NC(=O)CCCCCSc1nc2cc(C(=O)O)ccc2o1`, for which the half-inhibitory concentration (IC50) in assay [1] was 3600 nM; in assay [2], 4500 nM; in assay [4] it was 11000 nM. Moreover, the Ratio IC50 in assay [3] stood at 1.3.

`CC(C)c1cccc(C(C)C)c1NC(=O)CSc1nc2ccccc2[nH]1`: the IC50 came to 2300 nM in assay [1], 5800 nM in assay [2] and 180 nM in assay [4]. In assay [3], the Ratio IC50 came to 2.5.

As for `CC(C)c1cccc(C(C)C)c1NC(=O)CCCCCSc1nc2cccc(CN(C)C)c2o1`, the concentration for half-maximal inhibition (IC50) in assay [1] came to 96 nM; in assay [2], 130 nM; in assay [4], 5600 nM. In addition, the Ratio IC50 in assay [3] came to 1.4.

On to `CCCCSc1nc2ccccc2o1`, for which, in assay [1], the IC50 was 26000 nM.

In the case of `CC(C)c1cccc(C(C)C)c1NC(=O)CCSc1nc2ccccc2o1`, the concentration for half-maximal inhibition (IC50) in assay [1] came out at 15 nM.

For `CC(C)c1cccc(C(C)C)c1NC(=O)CCCCCSc1nc2ccccc2o1`, the IC50 in assay [1] came to 10 nM; in assay [2] it was 65 nM; in assay [4], 1900 nM. Besides, the Ratio IC50 in assay [3] turned out to be 6.5.

In the case of `CC(C)c1cccc(C(C)C)c1NC(=O)CCCCCSc1nc2cc(CO)ccc2o1`, the IC50 in assay [1] is 64 nM; in assay [2], 74 nM; in assay [4] it was 1100 nM. In assay [3], the Ratio IC50 is 1.2.

In the case of `CC(C)c1cccc(C(C)C)c1NC(=O)CCCCCSc1nc2ccc(CO)cc2o1`, the results for the 50% inhibitory concentration (IC50) in assay [1], in assay [2] and in assay [4] were 76 nM, 180 nM and 7000 nM, respectively. In assay [3], the Ratio IC50 came out at 2.4.

Consider `CC(C)c1cccc(C(C)C)c1NC(=O)CCCCCSc1nc2ccc(O)cc2o1`, for which the concentration for half-maximal inhibition (IC50) in assay [1] was 53 nM; in assay [2], 81 nM; in assay [4], 2300 nM. Moreover, the Ratio IC50 in assay [3] turned out to be 1.5.

Consider `CC(C)c1cccc(C(C)C)c1NC(=O)CCCCCSc1nc2cccc(C(=O)O)c2o1`, for which, in assay [3], the Ratio IC50 was 1. In addition, in assay [4], the IC50 amounted to 11000 nM.

As for `CC(C)c1cccc(C(C)C)c1NC(=O)CCCCCSc1nc2c(N(C)C)cccc2o1`, the IC50 in assay [1] came out at 29 nM; in assay [2], 120 nM; in assay [4] it was 500 nM. The Ratio IC50 in assay [3] turned out to be 4.1.

Turning to `CC(C)c1cccc(C(C)C)c1NC(=O)CCCCCSc1nc2cc(CN(C)C)ccc2o1`, the values for the half-maximal inhibitory concentration (IC50) in assay [1], in assay [2] and in assay [4] were 250 nM, 170 nM and 1800 nM, respectively. Besides, in assay [3], the Ratio IC50 worked out at 0.7.

Take `CC(C)c1cccc(C(C)C)c1NC(=O)CCCCCCCCSc1nc2ccccc2s1`: the IC50 in assay [1] was 4 nM; in assay [2], 18 nM; in assay [4], 43 nM. Also, in assay [3], the Ratio IC50 was 4.5.

For the molecule `CC(C)c1cccc(C(C)C)c1NC(=O)CCSc1nc2ccccc2s1`, the IC50 in assay [1] was determined as 4 nM; in assay [2], 19 nM; in assay [4] it was 280 nM. For the same molecule, in assay [3], the Ratio IC50 is 4.8.

For `CC(C)c1cccc(C(C)C)c1NC(=O)CCCCCSc1nc2ncccc2o1`, the IC50 in assay [1] came to 25 nM; in assay [2], 140 nM.

With `CC(C)c1cccc(C(C)C)c1NC(=O)CCCCCCCSc1nc2ccccc2[nH]1`, the IC50 was 18 nM in assay [1] and 30 nM in assay [4]. Besides, in assay [3], the Ratio IC50 was 1.7.

Consider `CSc1nc2ccccc2o1`, for which the IC50 in assay [1] came out at 31000 nM.

Regarding `CC(C)c1cccc(C(C)C)c1NC(=O)CCCCCCSc1nc2ccccc2o1`, the IC50 in assay [1] was 5 nM; in assay [2] it was 30 nM. In assay [3], the Ratio IC50 worked out at 6.

For `CC(C)c1cccc(C(C)C)c1NC(=O)CCCCCSc1nc2c(C(=O)O)cccc2o1`, the IC50 in assay [4] was 11000 nM.

Regarding `CC(C)c1cccc(C(C)C)c1NC(=O)CCCSc1nc2ccccc2s1`, the IC50 in assay [1] was 28 nM; in assay [2] it was 100 nM. Also, the Ratio IC50 in assay [3] is 3.6.

Values taken from ChEMBL document CHEMBL4229418, “Design, synthesis and pharmacology of aortic-selective acyl-CoA: Cholesterol O-acyltransferase (ACAT/SOAT) inhibitors” (Bioorg Med Chem, 2018).
